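Results reflect a 48-hour exposure of cells in 96-well plates to compound at five concentrations. At the GI50, growth is halved.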 Active and inactive are the calls of the source. Cut-off read from the data, not from the text of the source: active = GI50 up to about 1.1 µM and inactive = higher.
What was measured:
Assay in all cases: NCI-60 cell line screen, 48 h
[1] = test system: SF-539
[2] = test system: SK-MEL-2
[3] = test system: MDA-MB-231
[4] = test system: NCI-H460
[5] = test system: UACC-62
[6] = test system: COLO 205
[7] = test system: KM12
[8] = test system: A549
[9] = test system: Malme-3M
[10] = test system: ACHN
[11] = test system: HCT-15
[12] = test system: MDA-MB-435
[13] = test system: Hs-578T
[14] = test system: DU-145
[15] = test system: NCI-H522
[16] = test system: HL-60
[17] = test system: CAKI-1
[18] = test system: RPMI-8226
[19] = test system: SN12C
[20] = test system: CCRF-CEM

With `CC(CO)(Nc1ccc([N+](=O)[O-])cc1[N+](=O)[O-])C(=O)O` (stereo not given) the GI50 [1] was 34 µM (inactive), the GI50 [2] was 20.7 µM (inactive) and the GI50 [3] was 79.8 µM (inactive). For the same compound, the GI50 [4] was 15.5 µM (inactive), the GI50 [5] was 33.7 µM (inactive) and the GI50 [6] was 16.9 µM (inactive). For the same compound, the GI50 [7] was 43.5 µM (inactive), the GI50 [8] was 38.3 µM (inactive) and the GI50 [9] was 18.7 µM (inactive). For the same compound, the GI50 [10] was 18.7 µM (inactive), the GI50 [11] was 17.6 µM and the GI50 [12] was 21.6 µM (inactive). The GI50 [13] was 17.3 µM (inactive), the GI50 [14] was 22.8 µM (inactive) and the GI50 [15] was 18.7 µM (inactive). The GI50 [16] was 17.6 µM (inactive), the GI50 [17] was 33.8 µM (inactive) and the GI50 [18] was 29.3 µM (inactive). The GI50 [19] was 20.7 µM (inactive).

In the case of `Cc1ccccc1C1CC(=O)CC(c2ccccc2C)C12C(=O)NC(=S)NC2=O` (stereo not given), the GI50 [1] is reported as 20.9 µM (inactive), the GI50 [2] is reported as 13.4 µM (inactive) and the GI50 [3] is reported as 31.3 µM (inactive). For the same compound, the GI50 [4] was 19.4 µM (inactive), the GI50 [5] was 18.7 µM (inactive) and the GI50 [6] was 19.5 µM (inactive). The GI50 [7] was 22.1 µM (inactive), the GI50 [8] was 29.5 µM (inactive) and the GI50 [9] was 25.6 µM (inactive). The GI50 [10] was 18.4 µM (inactive), the GI50 [20] was 25 µM (inactive) and the GI50 [11] was 20.7 µM. The GI50 [12] was 20 µM (inactive), the GI50 [13] was 29.1 µM (inactive) and the GI50 [14] was 41.7 µM (inactive). The GI50 [16] was 21 µM (inactive), the GI50 [17] was 58.2 µM (inactive) and the GI50 [18] was 12.6 µM (inactive). For the same compound, the GI50 [19] was 26.4 µM (inactive).

In the case of `Cc1ccc(S(=O)(=O)NC(=O)C2C(=O)CC3(CCCCC3)CC2=O)cc1`, the GI50 [1] is reported as 30.7 µM (inactive), the GI50 [3] is reported as 36.1 µM (inactive) and the GI50 [4] is reported as 25.2 µM (inactive). For the same compound, the GI50 [5] was 31.3 µM (inactive), the GI50 [6] was 17.9 µM (inactive) and the GI50 [7] was 19.6 µM (inactive). For the same compound, the GI50 [8] was 33.3 µM (inactive), the GI50 [10] was 22.9 µM (inactive) and the GI50 [20] was 27.3 µM (inactive). For the same compound, the GI50 [11] was 23.2 µM, the GI50 [12] was 32.1 µM (inactive) and the GI50 [13] was 41.9 µM (inactive). The GI50 [14] was 37.5 µM (inactive), the GI50 [15] was 23.8 µM (inactive) and the GI50 [16] was 29.5 µM (inactive). For the same compound, the GI50 [17] was 26.4 µM (inactive), the GI50 [18] was 23.1 µM (inactive) and the GI50 [19] was 30.8 µM (inactive).

For `O=c1[nH]nc(Cc2ccc(Cl)cc2)n1/N=C\c1ccc(/C=N/n2c(Cc3ccc(Cl)cc3)n[nH]c2=O)cc1`, the GI50 [2] was 38.5 µM (inactive), the GI50 [3] was 17.2 µM (inactive) and the GI50 [4] was > 100 µM (inactive). For the same compound, the GI50 [5] was > 100 µM (inactive), the GI50 [6] was > 100 µM (inactive) and the GI50 [7] was > 100 µM (inactive). The GI50 [8] was > 100 µM (inactive), the GI50 [9] was > 100 µM (inactive) and the GI50 [10] was 29.9 µM (inactive). For the same compound, the GI50 [20] was > 100 µM (inactive), the GI50 [11] was greater than 100 µM and the GI50 [12] was > 100 µM (inactive). The GI50 [13] was 35.7 µM (inactive), the GI50 [14] was > 100 µM (inactive) and the GI50 [15] was > 100 µM (inactive). The GI50 [16] was > 100 µM (inactive), the GI50 [17] was 33.3 µM (inactive) and the GI50 [18] was > 100 µM (inactive). For the same compound, the GI50 [19] was 57.3 µM (inactive).

With `Cc1csc2c(=O)n(C3OC(CO)C(O)C3O)c(=O)[nH]c12` (stereo not given) the GI50 [1] was > 100 µM (inactive), the GI50 [3] was > 100 µM (inactive) and the GI50 [4] was > 100 µM (inactive). The GI50 [6] was > 100 µM (inactive), the GI50 [7] was > 100 µM (inactive) and the GI50 [8] was > 100 µM (inactive). The GI50 [9] was > 100 µM (inactive), the GI50 [10] was > 100 µM (inactive) and the GI50 [20] was > 100 µM (inactive). For the same compound, the GI50 [12] was > 100 µM (inactive), the GI50 [13] was > 100 µM (inactive) and the GI50 [14] was > 100 µM (inactive). For the same compound, the GI50 [15] was > 100 µM (inactive), the GI50 [16] was > 100 µM (inactive) and the GI50 [17] was > 100 µM (inactive). The GI50 [18] was > 100 µM (inactive) and the GI50 [19] was > 100 µM (inactive).

`O=C1c2cc([N+](=O)[O-])ccc2-c2cccc(F)c21` was tested, and the GI50 [1] was 40.2 µM (inactive), the GI50 [2] was 21.2 µM (inactive) and the GI50 [3] was > 100 µM (inactive). For the same compound, the GI50 [4] was 89.3 µM (inactive), the GI50 [5] was 56.1 µM (inactive) and the GI50 [6] was > 100 µM (inactive). For the same compound, the GI50 [7] was 79.4 µM (inactive), the GI50 [8] was > 100 µM (inactive) and the GI50 [10] was > 100 µM (inactive). The GI50 [20] was 23.7 µM (inactive), the GI50 [11] was 37.1 µM and the GI50 [12] was 76.7 µM (inactive). The GI50 [13] was 52.1 µM (inactive), the GI50 [14] was > 100 µM (inactive) and the GI50 [15] was 44.5 µM (inactive). For the same compound, the GI50 [16] was 38.5 µM (inactive), the GI50 [17] was > 100 µM (inactive) and the GI50 [18] was 64.1 µM (inactive). The GI50 [19] was > 100 µM (inactive).

For `Cc1ccc(/C=C2\CN(C)CC3=C2N=C(S)NC3c2ccc(C)cc2)cc1` (stereo not given), the GI50 [1] was 39 µM (inactive), the GI50 [2] was 51.3 µM (inactive) and the GI50 [3] was 34.8 µM (inactive). For the same compound, the GI50 [4] was 37.6 µM (inactive), the GI50 [5] was 36 µM (inactive) and the GI50 [6] was 19 µM (inactive). The GI50 [7] was 15.4 µM (inactive), the GI50 [8] was 37.2 µM (inactive) and the GI50 [9] was 47.3 µM (inactive). For the same compound, the GI50 [10] was 40.7 µM (inactive), the GI50 [20] was 30.1 µM (inactive) and the GI50 [11] was 31.8 µM. The GI50 [12] was 8.63 µM (inactive), the GI50 [13] was > 100 µM (inactive) and the GI50 [14] was 34.4 µM (inactive). For the same compound, the GI50 [15] was 39.5 µM (inactive), the GI50 [16] was 28.2 µM (inactive) and the GI50 [17] was > 100 µM (inactive). For the same compound, the GI50 [19] was 32.7 µM (inactive).

— ChEMBL document CHEMBL1201862, “PubChem BioAssay data set” (2004)
